Laboratory results: patent US10660877B2 (BRISTOL-MYERS SQUIBB COMPANY, priority 2016, dated 2020)
pIC50: −log10 of the molar value. Where two headings read alike, the source gives them in different places.

What was measured:
human TLR9 = human TLR9 (Homo sapiens (Human), UniProt Q9NR96); test: TLR9 inhibition reporter assay (HEK-Blue cells, SEAP reporter, ODN2006 stimulation);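 further: compounds tested over 0.05 nM to 50 µM, 22 h incubation, inhibition taken as SEAP signal drop from agonist plus DMSO wells toward a known inhibitor control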
Sequence of human TLR9 (Q9NR96 26-1032): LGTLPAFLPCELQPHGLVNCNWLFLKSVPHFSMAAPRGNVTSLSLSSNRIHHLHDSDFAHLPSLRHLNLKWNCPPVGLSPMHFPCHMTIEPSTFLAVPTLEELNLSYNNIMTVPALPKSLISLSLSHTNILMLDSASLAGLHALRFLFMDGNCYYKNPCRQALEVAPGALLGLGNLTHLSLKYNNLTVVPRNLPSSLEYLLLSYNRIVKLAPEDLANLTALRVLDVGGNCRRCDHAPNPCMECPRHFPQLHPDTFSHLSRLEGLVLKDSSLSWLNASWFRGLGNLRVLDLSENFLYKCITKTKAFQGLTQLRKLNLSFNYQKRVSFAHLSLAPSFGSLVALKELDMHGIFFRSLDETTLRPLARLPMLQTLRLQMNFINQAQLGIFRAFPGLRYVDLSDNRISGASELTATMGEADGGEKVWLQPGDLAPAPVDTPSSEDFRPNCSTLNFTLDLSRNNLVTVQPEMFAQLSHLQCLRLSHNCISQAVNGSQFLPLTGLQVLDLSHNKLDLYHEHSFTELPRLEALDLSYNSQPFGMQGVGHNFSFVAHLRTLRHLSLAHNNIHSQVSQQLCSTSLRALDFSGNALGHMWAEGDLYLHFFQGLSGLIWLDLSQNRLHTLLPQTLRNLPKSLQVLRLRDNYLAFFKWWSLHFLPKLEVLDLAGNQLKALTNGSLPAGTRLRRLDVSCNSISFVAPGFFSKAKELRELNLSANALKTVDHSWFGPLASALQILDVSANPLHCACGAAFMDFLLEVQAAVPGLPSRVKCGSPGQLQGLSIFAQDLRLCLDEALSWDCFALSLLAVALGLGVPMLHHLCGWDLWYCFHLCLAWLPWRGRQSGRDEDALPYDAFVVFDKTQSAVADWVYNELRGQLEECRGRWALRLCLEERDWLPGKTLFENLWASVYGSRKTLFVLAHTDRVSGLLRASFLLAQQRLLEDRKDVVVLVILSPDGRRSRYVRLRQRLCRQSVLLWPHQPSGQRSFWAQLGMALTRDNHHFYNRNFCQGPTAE

human TLR7 = human TLR7 (Homo sapiens (Human), UniProt Q9NYK1); test: TLR7 inhibition reporter assay (HEK-Blue cells, SEAP reporter, gardiquimod stimulation); assay type: cell-based
Sequence of human TLR7 (Q9NYK1 27-1049): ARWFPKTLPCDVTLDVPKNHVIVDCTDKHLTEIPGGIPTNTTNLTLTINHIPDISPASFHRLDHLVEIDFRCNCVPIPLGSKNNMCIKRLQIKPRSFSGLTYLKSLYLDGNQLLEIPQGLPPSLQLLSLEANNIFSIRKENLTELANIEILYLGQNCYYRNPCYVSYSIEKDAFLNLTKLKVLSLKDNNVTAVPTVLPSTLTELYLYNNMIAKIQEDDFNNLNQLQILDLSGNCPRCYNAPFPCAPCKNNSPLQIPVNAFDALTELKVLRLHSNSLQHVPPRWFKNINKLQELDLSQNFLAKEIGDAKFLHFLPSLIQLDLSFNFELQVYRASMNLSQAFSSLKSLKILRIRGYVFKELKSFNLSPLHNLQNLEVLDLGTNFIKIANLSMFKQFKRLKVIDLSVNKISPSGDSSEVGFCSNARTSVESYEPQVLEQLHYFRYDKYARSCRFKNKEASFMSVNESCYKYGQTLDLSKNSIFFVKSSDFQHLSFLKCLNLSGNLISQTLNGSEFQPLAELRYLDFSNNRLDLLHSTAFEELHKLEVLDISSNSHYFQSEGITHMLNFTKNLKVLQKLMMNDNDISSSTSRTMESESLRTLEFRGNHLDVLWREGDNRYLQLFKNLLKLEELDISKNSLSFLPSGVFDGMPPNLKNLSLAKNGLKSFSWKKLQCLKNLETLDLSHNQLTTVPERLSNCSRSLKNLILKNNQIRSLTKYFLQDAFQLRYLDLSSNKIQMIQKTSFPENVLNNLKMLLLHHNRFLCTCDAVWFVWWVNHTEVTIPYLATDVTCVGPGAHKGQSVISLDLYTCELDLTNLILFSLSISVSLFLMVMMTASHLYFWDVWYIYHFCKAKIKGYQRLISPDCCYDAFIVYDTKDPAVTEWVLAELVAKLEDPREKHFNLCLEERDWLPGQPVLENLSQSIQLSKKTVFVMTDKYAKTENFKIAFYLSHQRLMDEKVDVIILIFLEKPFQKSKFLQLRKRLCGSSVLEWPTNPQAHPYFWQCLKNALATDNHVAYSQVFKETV

[1] = read-out: TLR9 IC50, HEK-Blue cells overexpressing human TLR9, ODN2006 5 nM
[2] = HEK-Blue cells overexpressing human TLR7, gardiquimod 7.5 μM
[3] = read-out: TLR9 IC50, HEK-Blue cells, ODN2006 5 nM
[4] = HEK-Blue cells, gardiquimod 7.5 μM

Structure (SMILES)	pIC50 (human TLR9; [1])	pIC50 (human TLR7; [2])	pIC50 (human TLR9; [3])	pIC50 (human TLR7; [4])
CNCCN1CCC(c2ccc3[nH]c(-c4ccnc(F)c4)c(C)c3c2)CC1 [Example 750, 2-(4-(2-(2-fluoropyridin-4-yl)-3-methyl-1H-indol-5-yl)piperidin-1-yl)-N-methylethan-1-amine]	6.57	6.48	–	–
COc1cc(-c2[nH]c3ccc(C4CCN(C5CCN(C)CC5)CC4)cc3c2C)ccn1 [Example 838, 2-(2-methoxypyridin-4-yl)-3-methyl-5-(1′-methyl-[1,4′-bipiperidin]-4-yl)-1H-indole]	–	–	6.21	6.24
CCc1c(-c2ccnc(OC)c2)[nH]c2ccc(C3CCN(C4CCNCC4)CC3)cc12 [Example 787, 5-([1,4′-bipiperidin]-4-yl)-3-ethyl-2-(2-methoxypyridin-4-yl)-1H-indole]	6.32	6.34	–	–
CCc1c(-c2ccncc2)[nH]c2ccc(C3CCN(C4CCN(CC)CC4)CC3)cc12 [Example 809, 3-ethyl-5-(1′-ethyl-[1,4′-bipiperidin]-4-yl)-2-(pyridin-4-yl)-1H-indole]	–	–	6.51	6.05
CCN1CCC(N2CCC(c3ccc4[nH]c(-c5ccncc5)c(C)c4c3)CC2)CC1 [Example 841, 5-(1′-ethyl-[1,4′-bipiperidin]-4-yl)-3-methyl-2-(pyridin-4-yl)-1H-indole]	–	–	7.06	6.31
CCN1CCC(N2CCC(c3ccc4[nH]c(-c5ccnc(OC)c5)c(C)c4c3)CC2)CC1 [Example 839, 5-(1′-ethyl-[1,4′-bipiperidin]-4-yl)-2-(2-methoxypyridin-4-yl)-3-methyl-1H-indole]	–	–	5.35	6.16
CNCCN1CCC(c2ccc3[nH]c(-c4cc(OCCOC)ncc4F)c(C)c3c2)CC1 [Example 749, 2-(4-(2-(5-fluoro-2-(2-methoxyethoxy)pyridin-4-yl)-3-methyl-1H-indol-5-yl)piperidin-1-yl)-N-methylethan-1-amine]	6.19	5.32	–	–
CCc1c(-c2ccnc(OC)c2)[nH]c2ccc(C3CCN(C4CCN(C5CC5)CC4)CC3)cc12 [Example 788, 5-(1′-cyclopropyl-[1,4′-bipiperidin]-4-yl)-3-ethyl-2-(2-methoxypyridin-4-yl)-1H-indole]	6.21	6.45	–	–
CCc1c(-c2ccnc(C)c2)[nH]c2ccc(C3CCNCC3)cc12 [Example 63, 3-ethyl-2-(2-methylpyridin-4-yl)-5-(piperidin-4-yl)-1H-indole]	6.48	7.56	–	–
CCNc1cc(-c2[nH]c3ccc(C4CCN(C5CCN(CC(C)C)CC5)CC4)cc3c2CC)ccn1 [Example 772, N-ethyl-4-(3-ethyl-5-(1′-isobutyl-[1,4′-bipiperidin]-4-yl)-1H-indol-2-yl)pyridin-2-amine]	6.69	5.01	–	–
CCc1c(-c2ccnc(NC)c2)[nH]c2ccc(C3CCN(C4CCN(CC(C)C)CC4)CC3)cc12 [Example 771, 4-(3-ethyl-5-(1′-isobutyl-[1,4′-bipiperidin]-4-yl)-1H-indol-2-yl)-N-methylpyridin-2-amine]	6.77	5.47	–	–
COc1cc(-c2[nH]c3ccc(C4CCN(C5CCN(C(C)C)CC5)CC4)cc3c2C)ccn1 [Example 840, 5-(1′-isopropyl-[1,4′-bipiperidin]-4-yl)-2-(2-methoxypyridin-4-yl)-3-methyl-1H-indole]	–	–	6.42	6.33
CCc1cc(-c2[nH]c3ccc(C4CCN(CCNC)CC4)cc3c2C)ccn1 [Example 748, 2-(4-(2-(2-ethylpyridin-4-yl)-3-methyl-1H-indol-5-yl)piperidin-1-yl)-N-methylethan-1-amine]	7.02	6.31	–	–
CCc1c(-c2ccnc(C)c2)[nH]c2cc(F)c(C3CCNCC3)c(F)c12 [Example 83, 3-ethyl-4,6-difluoro-2-(2-methylpyridin-4-yl)-5-(piperidin-4-yl)-1H-indole]	–	7.96	–	–
CNCCN1CCC(c2ccc3[nH]c(-c4ccnc(C(F)(F)F)c4)c(C)c3c2)CC1 [Example 747, N-methyl-2-(4-(3-methyl-2-(2-(trifluoromethyl)pyridin-4-yl)-1H-indol-5-yl)piperidin-1-yl)ethan-1-amine]	6.28	6.39	–	–
CCc1c(-c2ccnc(C)c2)[nH]c2ccc(C3CCNCC3)c(C)c12 [Example 82, 3-ethyl-4-methyl-2-(2-methylpyridin-4-yl)-5-(piperidin-4-yl)-1H-indole]	–	8.14	–	–
CCc1c(-c2ccnc(OC(F)F)c2)[nH]c2ccc(C3CCN(C4CCN(CC(C)C)CC4)CC3)cc12 [Example 774, 2-(2-(difluoromethoxy)pyridin-4-yl)-3-ethyl-5-(1′-isobutyl-[1,4′-bipiperidin]-4-yl)-1H-indole]	6.18	5.43	–	–
CNCCN1CCC(c2ccc3[nH]c(-c4ccnc(OC)c4)c(CC4CC4)c3c2)CC1 [Example 784, 2-(4-(3-(cyclopropylmethyl)-2-(2-methoxypyridin-4-yl)-1H-indol-5-yl)piperidin-1-yl)-N-methylethan-1-amine]	6.16	7.03	–	–
CNCCN1CCC(c2ccc3[nH]c(-c4ccnc(OC)c4)c(C)c3c2)CC1 [Example 777, 2-(4-(2-(2-methoxypyridin-4-yl)-3-methyl-1H-indol-5-yl)piperidin-1-yl)-N-methylethan-1-amine]	–	6.29	–	–
CCc1c(-c2ccncc2)[nH]c2ccc(C3CCN(C4CCN(C)CC4)CC3)cc12 [Example 806, 3-ethyl-5-(1′-methyl-[1,4′-bipiperidin]-4-yl)-2-(pyridin-4-yl)-1H-indole]	6.44	5.92	–	–

Now from value to molecule:

pIC50 (human TLR9; [1])	pIC50 (human TLR7; [2])	pIC50 (human TLR9; [3])	pIC50 (human TLR7; [4])	Structure (SMILES)
6.26	6.56	–	–	Cc1nc(C)c(C)c(-c2[nH]c3ccc(C4CCNCC4)cc3c2C(C)C)c1C [Example 43, 3-isopropyl-5-(piperidin-4-yl)-2-(2,3,5,6-tetramethylpyridin-4-yl)-1H-indole]
–	–	7.03	6.41	Cc1c(-c2ccncc2)[nH]c2ccc(C3CCN(C4CCN(C)CC4)CC3)cc12 [Example 842, 3-methyl-5-(1′-methyl-[1,4′-bipiperidin]-4-yl)-2-(pyridin-4-yl)-1H-indole]
–	–	6.21	6.17	CCc1c(-c2ccncc2)[nH]c2ccc(C3CCN(CCNC)CC3)cc12 [Example 808, 2-(4-(3-ethyl-2-(pyridin-4-yl)-1H-indol-5-yl)piperidin-1-yl)-N-methylethan-1-amine]
6.46	9.30	–	–	Cc1cc(-c2[nH]c3ccc(C4CCNCC4)c(F)c3c2C(C)C)cc(C)n1 [Example 77, 2-(2,6-dimethylpyridin-4-yl)-4-fluoro-3-isopropyl-5-(piperidin-4-yl)-1H-indole]
6.74	8.30	–	–	Cc1cc(-c2[nH]c3cc(C)c(C4CCNCC4)cc3c2C(C)C)ccn1 [Example 75, 3-isopropyl-6-methyl-2-(2-methylpyridin-4-yl)-5-(piperidin-4-yl)-1H-indole]
6.00	7.26	–	–	CNCCN1CCC(c2ccc3[nH]c(-c4ccnc(OC)c4)c(C(C)C)c3c2)CC1 [Example 783, 2-(4-(3-isopropyl-2-(2-methoxypyridin-4-yl)-1H-indol-5-yl)piperidin-1-yl)-N-methylethan-1-amine]
5.73	6.91	–	–	CC(C)c1c(-c2ccncc2CO)[nH]c2ccc(C3CCNCC3)cc12 [Example 19, (4-(3-isopropyl-5-(piperidin-4-yl)-1H-indol-2-yl)pyridin-3-yl)methanol]
5.67	7.42	–	–	CC(C)c1c(-c2ccncc2)[nH]c2ccc(C3CCNCC3)cc12 [Example 38, 3-isopropyl-5-(piperidin-4-yl)-2-(pyridin-4-yl)-1H-indole]
5.88	7.99	–	–	Cc1cc(-c2[nH]c3ccc(C4CCNCC4)cc3c2C(C)C)cc(C2CC2)n1 [Example 478, 2-(2-cyclopropyl-6-methylpyridin-4-yl)-3-isopropyl-5-(piperidin-4-yl)-1H-indole]
5.63	8.82	–	–	COc1cc(-c2[nH]c3ccc(C4CCNCC4)cc3c2C(C)C)cc(C)n1 [Example 46, 3-isopropyl-2-(2-methoxy-6-methylpyridin-4-yl)-5-(piperidin-4-yl)-1H-indole]
5.92	6.21	–	–	CCc1c(-c2ccncc2)[nH]c2ccc(C3CCN(Cc4cccn4C)CC3)cc12 [Example 805, 3-ethyl-5-(1-((1-methyl-1H-pyrrol-2-yl)methyl)piperidin-4-yl)-2-(pyridin-4-yl)-1H-indole]
5.52	7.93	–	–	COc1cc(-c2[nH]c3ccc(C4CCNCC4)cc3c2C(C)C)ccn1 [Example 485, 3-isopropyl-2-(2-methoxypyridin-4-yl)-5-(piperidin-4-yl)-1H-indole]
5.84	7.34	–	–	CC(C)c1c(-c2ccnc(C3CC3)c2)[nH]c2ccc(C3CCNCC3)cc12 [Example 483, 2-(2-cyclopropylpyridin-4-yl)-3-isopropyl-5-(piperidin-4-yl)-1H-indole]
–	6.26	–	–	CNCCN1CCC(c2ccc3[nH]c(-c4ccncc4)c(C)c3c2)CC1 [Example 776, N-methyl-2-(4-(3-methyl-2-(pyridin-4-yl)-1H-indol-5-yl)piperidin-1-yl)ethan-1-amine]
5.83	7.55	–	–	CC(C)c1c(-c2ccnc(C(F)(F)F)c2)[nH]c2ccc(C3CCNCC3)cc12 [Example 6, 3-isopropyl-5-(piperidin-4-yl)-2-(2-(trifluoromethyl)pyridin-4-yl)-1H-indole]
5.47	7.01	–	–	CCc1cc(-c2[nH]c3ccc(C4CCNCC4)cc3c2C(C)C)cc(C)n1 [Example 479, 2-(2-ethyl-6-methylpyridin-4-yl)-3-isopropyl-5-(piperidin-4-yl)-1H-indole]
4.81	–	–	–	Cc1cc(-c2[nH]c3ccc(C4CCN(C(=O)c5ccncc5)CC4)cc3c2C(C)C)cc(C)n1 [Example 113]
